Data as given in patent US5719129A, “Derivative of caffeic acid, oraposide, and cosmetic or pharmaceutical compositions, in particular dermatological compositions, containing it” (priority 1993, dated 1998).
Blank lines part the entries; values can stand above or below the molecule they belong to.

Legend:
A.R. calf lens = biological target: T1, A.R. calf lens (Bos taurus, UniProt P16116); assay: Inhibition of aldose reductase, calf lens; type: biochemical, bovine (calf)
T1 construct: crude enzyme extract isolated from lenses freshly obtained from bovines and rats; from tissue; host or cells: calf (bovine) lens, crude enzyme extract
Description: (§1) Enzyme inhibition was evaluated in vitro using a crude enzyme extract isolated from lenses freshly obtained from bovines and rats. The principle of the reaction is as follows: [drawing 3]
(§2) This reaction takes place at PH=6.2 at ambient temperature and extinctions were measured at 340 nm. The molecules tested were dissolved in twice-distilled water.
The aldose reductase inhibiting activity of the various heteroside caffeic esters (1) and (2) correspond to two different series of experiments.

A.R. - Rat lens = biological target: T2, A.R. - Rat lens (Rattus norvegicus, UniProt P07943); assay: Inhibition of aldose reductase, rat lens; type: biochemical
T2 construct: crude enzyme extract isolated from lenses freshly obtained from bovines and rats; from tissue; host or cells: rat lens, crude enzyme extract
Description: as §1, §2

[1] = tested on: micromycete contaminants commonly found in foodstuffs; assay: Antifungal activity against micromycete contaminants of foodstuffs (25 species); type: cell-based; set-up: Strains whose growth was inhibited or diminished: concentration or dose not given beside the values; settings: 25 species of fungi
Description: (§3) It is known that a number of caffeic acid derivatives inhibit the growth of bacteria and fungi. This property has been confirmed for oraposide with 40 different strains belonging to 10 genera of bacteria, and 25 different strains belonging to 25 species of fungi.
Antifungal activity was tested in relation to micromycete contaminants commonly found in foodstuffs. The test was performed with 25 species belonging to the Adelomycetes (e.g. Alternaria tenuis, Fusarium avenceum, Geotricom candidum, etc.), Mucorales (e.g. Mucor mucedo, Cunninghamella elegans, Rhizopus nigricans, etc.), Endomycetes (e.g. Candida lipolytica, Saccharomyces cerevisiae, etc.), Plectomycetes (e.g. Aspergillus clavatus, A. niger, Penicillium chrysogenum, P. rubturm, etc.), and Pyrenomycetes (e.g. Chaetomium globosum, Sordaria himicola, etc.).

[2] = UV absorption of oraposide compared with sunscreen filters (integration of UVB and UVA peak surface areas); type: physicochemical
Excerpt: Integration of the surface areas of the UVB peaks can be used to compare oraposide with Parsol MCX®, from which it can be seen that the UVB absorption activity of oraposide is 0.4 times that of Parsol MCX®. If the surface area of the UVA peak of oraposide is integrated and compared with Parsol 1 789®, it will be seen that the UVA absorption of oraposide is approximately 0.2 times that of Parsol 1 789®.

bacterial strains = assay: Antibacterial effect, 40 strains belonging to 10 genera of bacteria; type: cell-based; settings: doses of 0.5 mg/ml and above
Excerpt: as §3
The bacterial strains tested were: Staphylococcus aureus, Streptococcus (group A and group D), Escherichia coli, Klebsiella pneumoniae, Proteus sp., Providentia sp., Serratia marcescens, Enterobacter cloacae, Pseudomonas aeruginosa, Salmonella (S. typhi and S. para-typhi).

[3] = tested on: tremor caused by a tremor-inducing factor; assay: Antitremor activity in association with L-dopa against a tremor-inducing factor, in animals and in man; type: in vivo; settings: associated with L-dopa
Excerpt: (§4) In accordance with a particular embodiment of the invention within the context of antitremor treatment, in particular in Parkinson's disease, the composition according to the aforesaid invention also contains a therapeutically effective amount of L-dopa. In fat oraposide and its derivatives of formula I aforesaid have a potentiating activity for L-dopa in its antitremor activity, which is effective in particular in Parkinson's disease. Oraposide and its derivatives of formula I aforesaid associated with L-dopa in fact experimentally reduce tremor caused by a tremor-inducing factor in animals and in man. In Parkinson's disease an improvement in abnormal movements (of the choreic type) and other secondary disturbances due to treatment with L-dopa is found.

human keratinocytes [4] = assay: Anti-free-radical activity in keratinocyte cultures (MDA production); type: cell-based; settings: for inhibition at 100 µM: Homo sapiens, Keratinocyte, 2 h, 2 hours incubation, mean of 3 measurements
Description: The anti-free-radical activity of oraposide was investigated on a line of human keratinocytes in culture, in comparison with well known anti-free-radical agents.
The protective activity of the anti-free-radical agent was evaluated by measuring malonaldehyde (MDA) in the culture medium (reflecting the lipoperoxidation of cell membrane lipids) after the cells had been brought into contact with a source of oxygenated free radicals (after the method of Z. A. Placer et al., 1966, Anal. Biochem. 16, 359-64, reference cited above).
Cells: human keratinocytes from a squamous carcinoma.
One week after seeding the merged single layer of cells was processed with […] of a solution containing an oxygenated radical generator consisting of vitamin C 10^-3 M, FeCl3 10^-4 M, FeSO4 10^-4 M in pH 8 PBS buffer to which the molecule being tested was added (=reaction medium).
After incubation at 37° C. for 2 hours this incubation medium was recovered for the determination of MDA.
After 2 hours incubation with the cells the 500 μl of reaction medium was sampled and thiobarbituric acid was added in order to determine MDA at 532 nm.
The results are stated as % inhibition of MDA production.
The investigation was performed at a concentration of 100 μM for the 3 materials after 2 hours incubation with the reaction mixture. The MDA produced, determined by spectrophotometry, provided results which are expressed as % inhibition of this production in comparison with the controls (reaction medium alone).

rabbit hepatocytes [5] = assay: LDH release by hepatocytes in primary culture intoxicated with chloroform; type: cell-based; settings: oraposide 5.10^-5 M; chloroform 10^-4 M; 3, 7 and 24 hours (FIG. 2)
Excerpt: As in FIG. 1, reference 1 indicates the results obtained with untreated cultures, reference 2 the results obtained with cultures treated with 10^-4 M chloroform, and reference 3 the results obtained with cultures treated with a combination of 10^-4 M chloroform and oraposide in a concentration of 5.10^-5 M. Chloroform is also a hepatotoxic agent.
(§5) The experimental model selected was investigation of the release of lactate dehydrogenase (LDH) by rabbit hepatocytes in primary culture, this LDH release representing a marker of hepatocyte deterioration.
(§6) The hepatocytes were deliberately intoxicated with nitroxynil (10^-4 to 10^-5 M) or chloroform (10^-3 to 10^-5 M) .
(§7) The effect of oraposide was evaluated for a final concentration of 0.05 mM in the culture medium.

rabbit hepatocytes [6] = assay: LDH release by hepatocytes in primary culture intoxicated with nitroxynil; type: cell-based; settings: oraposide 5.10^-5 M (0.05 mM); nitroxynil 10^-4 M; 3 and 7 hours (FIG. 1)
Excerpt: Reference 1 in the two blocks of histograms indicates the results obtained with untreated cultures, acting as controls, reference 2 indicates histogram blocks obtained using cultures treated with nitroxynil at a concentration of 10^-4 M, reference 3 indicates histogram blocks obtained with cultures treated with nitroxynil in a concentration of 10^-4 M and verbascoside in a concentration of 5.10 ^-5 M, reference 4 indicates histogram blocks obtained with cultures treated with nitroxynil in a concentration of 10^-4 M and oraposide in a concentration of 5.10^-5 M, and reference 5 indicates histogram blocks obtained with cultures treated with nitroxynil in a concentration of 10^-4 M and arenarioside in a concentration of 5.10^-5 M. Nitroxynil is a hepatotoxic agent, verbascoside and arenarioside are other heteroside esters of caffeic acid which are known to those skilled in the art.
as §5, §6, §7

aldose reductase = assay: Inhibition of aldose reductase, comparison in the conclusion (species not given); type: biochemical; settings: value given in conclusion, species not specified; read-out: IC 50 (conclusion)
Excerpt: The four molecules inhibit aldose reductase from both cattle and rats.

rabbit liver microsomes = assay: Lipoperoxidation inhibition in liver microsomes (malonyl dialdehyde formation); type: biochemical
Description: Verbascoside, oraposide and arenarioside are heteroside esters of caffeic acid and the acids cited are other esters of caffeic acid.
A lipoperoxidation reaction takes place when rabbit liver microsomes are incubated in the presence of NADPH.
The microsomes were recovered from the processing of hepatocytes with ultrasound.
Lipoperoxidation was evaluated through the formation of malonyl dialdehyde in accordance with the method by Placer et al., 1966 (Analyt. Biochem. 16,359-364).
The reaction was performed in the absence of (control) and in the presence of caffeic acid or oraposide in a concentration of 5.10^-5 M or in the presence of α-tocopherol (Sigma) at 5.10^-5 M (known inhibiting activity reference).

rabbit hepatocytes [7] = assay: Cell toxicity of oraposide itself on hepatocytes; type: cell-based; settings: even at a concentration of 100 μM
Excerpt: as §5

Parkinson's disease = assay: Effect in Parkinson's disease on abnormal movements and secondary disturbances due to treatment with L-dopa; type: in vivo; settings: associated with L-dopa
Excerpt: as §4

human keratinocytes [8] = assay: Cytotoxicity in keratinocyte culture (LDH release); settings: for cytotoxicity (in words) / % increase in OD with respect to the control (+DMSO), D1 / % increase in OD with respect to the control (+DMSO), D2 / % increase in OD with respect to the control (+DMSO), D3: 200 μM; for cytotoxicity (in words): LDH release; for % increase in OD with respect to the control (+DMSO), D1: day 1, mean of 3 measurements; for % increase in OD with respect to the control (+DMSO), D2: day 2, mean of 3 measurements; for % increase in OD with respect to the control (+DMSO), D3: day 3, mean of 3 measurements
Description: Culture medium: DMEM (1/2), HAM F12 (1/2) basic medium (from the Gibco company), with added 5% foetal calf serum (from the Intermed company).
Cultures were prepared in 60 mm petri dishes (NUNC), seeding density: 5000 cells per cm^2.
The compounds were tested in solution in DMSO at 200 μM, the control cultures containing an identical amount of solvent.
The amount of LDH released into the culture medium after daily treatment with anti-free-radical molecules was determined after 24 hours and then for 6 days.
The supernatant from the culture was contacted with sodium pyruvate and NADH, and the kinetics of LDH activity were measured spectrophotometrically (Boehringer kit).

Staphylococcus aureus = assay: Antibacterial effect, 29 strains of Staphylococcus aureus; type: cell-based
[9] = 5.10^-5 M, microsomes with NADPH (FIG. 3)

IC50 (A.R. calf lens; series (1)): 2380 nM
IC50 (A.R. calf lens; series (2)): 1470 nM
IC50 (A.R. - Rat lens): 4180 nM
Structure (SMILES): C[C@@H]1OC(O[C@@H]2[C@@H](O)[C@H](OCCc3ccc(O)c(O)c3)O[C@H](CO[C@@H]3OC[C@@H](O)[C@H](O)[C@H]3O)[C@H]2OC(=O)/C=C/c2ccc(O)c(O)c2)[C@H](O)[C@H](O)[C@H]1O (stereo partly shown) [Arenarioside]

IC50 (A.R. calf lens; series (1)): 1600 nM
IC50 (A.R. calf lens; series (2)): 1600 nM
IC50 (A.R. - Rat lens): 1780 nM
Strains whose growth was inhibited by an MIC <10 mg/ml [1]: 44%
Structure (SMILES): C[C@@H]1O[C@@H](O[C@@H]2[C@@H](O)[C@H](OCCc3ccc(O)c(O)c3)O[C@H](CO)[C@H]2OC(=O)/C=C/c2ccc(O)c(O)c2)[C@H](O)[C@H](O)[C@H]1O [Verbascoside]
Strains whose growth was inhibited or diminished [1]: 72%

Structure (SMILES): CC1OC(OC2C(OC(=O)C=Cc3ccc(O)c(O)c3)C(CO)OC3OCC(c4ccc(O)c(O)c4)OC32)C(O)C(O)C1O [Oraposide, 3-0-(α-L-rhamnopyranosyl)-[2-(3,4-dihydroxyphenyl)-1,2-ethylidene]-β-D-glucopyranoside 4-caffeate]
UVA absorption relative to Parsol 1 789 ([2]; surface area of UVA peak, vs Parsol 1 789): approximately 0.2 times
UVB absorption activity relative to Parsol MCX ([2]; surface area of UVB peak, vs Parsol MCX): 0.4 times
inhibition of all bacterial strains (bacterial strains): 100%
tremor caused by a tremor-inducing factor [3]: reduce tremor
protective power / anti-free-radical activity (in words) (human keratinocytes [4]; 100 μM): equally effective as BHT, but less effective than α-tocopherol
inhibition at 100 µM (human keratinocytes [4]; 1st experiment): 70 ± 3%
inhibition at 100 µM (human keratinocytes [4]; 2nd experiment): 60 ± 15%
release of LDH by hepatocytes intoxicated with chloroform (rabbit hepatocytes [5]): a less clear effect
IC50 (A.R. calf lens; series (1)): 150 nM
IC50 (A.R. calf lens; series (2)): 165 nM
release of LDH by hepatocytes intoxicated with nitroxynil (rabbit hepatocytes [6]): very significantly reduces the release of LDH
IC50 (aldose reductase): 160 nM
inhibition of lipoperoxidation (rabbit liver microsomes; [9]): 100%
inhibition of lipoperoxidation (in words) (rabbit liver microsomes; [9]): stronger inhibition
inhibition of lipid oxidation potentiated by CCl4 (rabbit liver microsomes; free radical generator CCl4): 100%
inhibition of lipid oxidation potentiated by H2O2 (rabbit liver microsomes; free radical generator H2 O2): 90%
IC50 (rabbit liver microsomes; read-out: dose required to obtain 50% inhibition of lipoperoxidation, FIG. 4): 10 µM
cell toxicity (rabbit hepatocytes [7]): no cell toxicity
abnormal movements (of the choreic type) and other secondary disturbances due to treatment with L-dopa (Parkinson's disease): improvement
cytotoxicity (in words) (human keratinocytes [8]): no cytotoxic effect
% increase in OD with respect to the control (+DMSO), D1 (human keratinocytes [8]): 0%
% increase in OD with respect to the control (+DMSO), D2 (human keratinocytes [8]): 0%
% increase in OD with respect to the control (+DMSO), D3 (human keratinocytes [8]): 0%
cytotoxic effect up to a concentration of 200 μM (human keratinocytes [8]; up to 200 μM): no cytotoxic effect
inhibition at 60 µg/mL (Staphylococcus aureus; 0.06 mg/ml): 70%
inhibition at 120 µg/mL (Staphylococcus aureus; 0.12 mg/ml): 80%
IC50 (A.R. - Rat lens): 220 nM
Strains whose growth was inhibited or diminished [1]: 92%
Strains whose growth was inhibited by an MIC <10 mg/ml [1]: 64%

Strains whose growth was inhibited by an MIC <10 mg/ml [1]: 96%
Structure (SMILES): O=C(/C=C/c1ccc(O)c(O)c1)O[C@H](Cc1ccc(O)c(O)c1)C(=O)O [Rosmarinic acid]
Strains whose growth was inhibited or diminished [1]: 100%

Strains whose growth was inhibited by an MIC <10 mg/ml [1]: 52%
Structure (SMILES): O=C(O)/C=C/c1ccc(O)c(O)c1 [Caffeic acid, 3,4-dihydroxycinnamic acid]
inhibition of lipoperoxidation (in words) (rabbit liver microsomes; [9]): equivalent inhibiting activity
Strains whose growth was inhibited or diminished [1]: 83%

Structure (SMILES): Cc1c(C)c2c(c(C)c1O)CCC(C)(CCCC(C)CCCC(C)CCCC(C)C)O2 (stereo not drawn) [α-tocopherol, reference compound]
inhibition at 100 µM (human keratinocytes [4]): 100%
inhibition of lipoperoxidation (in words) (rabbit liver microsomes; [9]): equivalent inhibiting activity
cytotoxicity (in words) (human keratinocytes [8]): less pronounced
% increase in OD with respect to the control (+DMSO), D1 (human keratinocytes [8]): 19 ± 2%
% increase in OD with respect to the control (+DMSO), D2 (human keratinocytes [8]): 83 ± 20%
% increase in OD with respect to the control (+DMSO), D3 (human keratinocytes [8]): 54 ± 8%

Structure (SMILES): Cc1cc(C(C)(C)C)c(O)c(C(C)(C)C)c1 [BHT, reference compound]
inhibition at 100 µM (human keratinocytes [4]): 64 ± 2%
cytotoxicity (in words) (human keratinocytes [8]): high cytotoxicity

Strains whose growth was inhibited by an MIC <10 mg/ml [1]: 40%
Structure (SMILES): O=C(/C=C/c1ccc(O)c(O)c1)O[C@@H]1C[C@](O)(C(=O)O)C[C@@H](O)[C@H]1O [Chlorogenic acid]
Strains whose growth was inhibited or diminished [1]: 80%
